Among the data in patent publication US9394311B2, “Triazolo compounds as PDE10 inhibitors” (Hoffmann-La Roche Inc., priority 2012, dated 2016) are IC50 values, retold here.

Molecules are shown by their SMILES.

human PDE10A, sequence (Q9Y233 other isoform, or with tags, fused parts or gaps): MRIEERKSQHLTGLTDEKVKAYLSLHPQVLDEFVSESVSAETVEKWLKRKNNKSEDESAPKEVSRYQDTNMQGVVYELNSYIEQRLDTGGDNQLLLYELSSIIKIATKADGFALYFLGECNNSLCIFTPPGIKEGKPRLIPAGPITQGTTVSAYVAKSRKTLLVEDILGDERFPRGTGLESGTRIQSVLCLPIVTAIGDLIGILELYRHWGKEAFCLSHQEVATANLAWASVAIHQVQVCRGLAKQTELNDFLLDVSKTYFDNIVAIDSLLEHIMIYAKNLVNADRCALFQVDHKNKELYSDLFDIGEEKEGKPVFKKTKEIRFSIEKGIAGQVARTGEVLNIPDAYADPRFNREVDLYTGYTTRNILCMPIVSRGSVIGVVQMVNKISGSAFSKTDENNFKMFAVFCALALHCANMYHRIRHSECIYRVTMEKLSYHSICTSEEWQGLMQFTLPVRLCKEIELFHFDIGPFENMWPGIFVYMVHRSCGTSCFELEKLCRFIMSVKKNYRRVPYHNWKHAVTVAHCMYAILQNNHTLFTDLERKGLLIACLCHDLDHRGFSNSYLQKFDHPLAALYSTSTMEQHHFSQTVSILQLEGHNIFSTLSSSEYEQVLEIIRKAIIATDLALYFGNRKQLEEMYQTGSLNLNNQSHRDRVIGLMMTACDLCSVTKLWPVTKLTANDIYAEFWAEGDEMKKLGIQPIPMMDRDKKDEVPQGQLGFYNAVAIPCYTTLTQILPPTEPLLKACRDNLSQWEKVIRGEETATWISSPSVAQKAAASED

In this assay the target is human PDE10A (Homo sapiens (Human), UniProt Q9Y233). In words: human PDE10A full length Scintillation Proximity Assay (SPA). The assay is classed as biochemical. The note with it: PDE10A full length enzyme, 50 nM cGMP / [3H]-cGMP substrate, 20 minutes at room temperature. On the procedure:
The following test was carried out in order to determine the activity of the compounds of the present invention. PDE10 activity of the compounds of the present invention was determined using a Scintillation Proximity Assay (SPA)-based method similar to the one previously described (Fawcett, L. et al., Proc Natl Acad Sci USA (2000) 97(7):3702-3707).
The human PDE10A full length assay was performed in 96-well micro titer plates. The reaction mixture of 50 μl contained 20 mM HEPES pH=7.5/10 mM MgCl2/0.05 mg/ml BSA (Sigma cat. # A-7906), 50 nM cGMP (Sigma, cat. # G6129) and 50 nM [3H]-cGMP (GE Healthcare, cat. # TRK392 S.A. 13.2 Ci/mmol), 3.75 ng/well PDE10A enzyme (Enzo Life Science, Lausen, Switzerland cat # SE-534) with or without a specific test compound. A range of concentrations of the potential inhibitor was used to generate data for calculating the concentration of inhibitor resulting in 50% of the effect (e.g. IC50, the concentration of the competitor inhibiting PDE10A activity by 50%). Non-specific activity was tested without the enzyme. The reaction was initiated by the addition of the substrate solution (cGMP and [3H]-cGMP) and allowed to progress for 20 minutes at room temperature. The reaction was terminated by adding 25 μl of YSi-SPA scintillation beads (GE Healthcare, cat. # RPNQ0150) in 18 mM zinc sulphate solution (stop reagent). After 1 h under shaking, the plate was centrifuged one minute at 170 g to allow beads to settle. Afterwards, radioactive counts were measured on a Perkin Elmer Top-Count Scintillation plate reader.
(In general: Scintillation proximity formats need no separation of bound from free tracer.)
As to `Cc1ncc(C)n2nc(CCc3nc(N4CCC[C@@H]4C)nn3C)nc12` [Example 100, 5,8-Dimethyl-2-{2-[2-methyl-5-((S)-2-methyl-pyrrolidin-1-yl)-2H-[1,2,4]triazol-3-yl]-ethyl}-[1,2,4]triazolo[1,5-a]pyrazine], the IC50 (in general, the concentration needed to halve the response being measured) worked out at 5.5 nM. This counts as single-digit nanomolar.
Take `COc1ccc(Cn2nc(N3CCCC3)nc2CCc2nc3c(Cl)cc(Cl)c(C)n3n2)cc1` [Example 61]: 0.72 nM corresponded to half-maximal inhibition (IC50).
The compound `Cc1c(C#N)cc(Cl)c2nc(CCc3nc(N4CCCC4)nn3C)nn12` [Example 74, 8-Chloro-5-methyl-2-[2-(2-methyl-5-pyrrolidin-1-yl-2H-[1,2,4]triazol-3-yl)-ethyl]-[1,2,4]triazolo[1,5-c]pyridine-6-carbonitrile] gave an IC50 of 2.16 nM.
Turning to `Cc1ncc(C)n2nc(/C=C/c3nc(N(C)C4CC4)nn3C)nc12` [Example 11, Cyclopropyl-{5-[2-(5,8-dimethyl-[1,2,4]triazolo[1,5-a]pyrazin-2-yl)-vinyl]-1-methyl-1H-[1,2,4]triazol-3-yl}-methyl-amine], the IC50 is 42.3 nM.
With `Cc1cc(C(F)(F)F)c2nc(CCc3nc(N4CCCC4)nn3C)nn2c1C` [Example 84, 5,6-Dimethyl-2-(2-(1-methyl-3-(pyrrolidin-1-yl)-1H-1,2,4-triazol-5-yl)ethyl)-8-(trifluoromethyl)-[1,2,4]triazolo[1,5-a]pyridine] the figure was 1.45 nM; with `COc1ccc(Cn2nc(C#Cc3cnc4ccc(Cl)cc4n3)nc2N2CCCC2)cc1` [Example 133, 7-chloro-2-((1-(4-methoxybenzyl)-5-(pyrrolidin-1-yl)-1H-1,2,4-triazol-3-yl)ethynyl)quinoxaline], 17.8 nM.
Compound `Cc1cc(C)n2nc(/C=C/c3nc(N(C)C4CC4)nn3C)nc2n1` [Example 30, Cyclopropyl-{5-[2-(5,7-dimethyl-[1,2,4]triazolo[1,5-a]pyrimidin-2-yl)-vinyl]-1-methyl-1H-[1,2,4]triazol-3-yl}-methyl-amine] had an IC50 of 57.9 nM.
`Cc1cc(C)n2nc(CCc3nc(N(C)C4CC4)nn3C)nc2n1` [Example 34, Cyclopropyl-{5-[2-(5,7-dimethyl-[1,2,4]triazolo[1,5-a]pyrimidin-2-yl)-ethyl]-1-methyl-1H-[1,2,4]triazol-3-yl}-methyl-amine] had an IC50 of 128 nM.
`Cc1ncc(C)n2nc(CCc3nc(N4CCCCC4)nn3C)nc12` [Example 49, 5,8-Dimethyl-2-[2-(2-methyl-5-piperidin-1-yl-2H-[1,2,4]triazol-3-yl)-ethyl]-[1,2,4]triazolo[1,5-a]pyrazine] came in with an IC50 of 31.6 nM.
Then `Cc1c(Br)cc(Cl)c2nc(CCc3nc(N4CCCC4)nn3C)nn12` [Example 72, 6-Bromo-8-chloro-5-methyl-2-(2-(1-methyl-3-(pyrrolidin-1-yl)-1H-1,2,4-triazol-5-yl)ethyl)-[1,2,4]triazolo[1,5-a]pyridine], with 1.22 nM.
With `Cc1c(Cl)cc(OCCN2CCOCC2)c2nc(CCc3nc(N4CCCC4)nn3C)nn12` [Example 121, 4-[2-[[6-Chloro-5-methyl-2-[2-(2-methyl-5-pyrrolidin-1-yl-1,2,4-triazol-3-yl)ethyl]-[1,2,4]triazolo[1,5-a]pyridin-8-yl]oxy]ethyl]morpholine], inhibition was half-maximal at 1.37 nM (IC50). This IC50 and that of the compound before are within 1.5-fold of each other.
With `Cc1c(Cl)cc(C(C)(C)O)c2nc(CCc3nc(N4CCCC4)nn3C)nn12` [Example 80, 2-{6-Chloro-5-methyl-2-[2-(2-methyl-5-pyrrolidin-1-yl-2H-[1,2,4]triazol-3-yl)-ethyl]-[1,2,4]triazolo[1,5-c]pyridin-8-yl}-propan-2-ol] the figure was 76.3 nM.
`Cc1ncc(C)n2nc(CCc3nc(N4CCCC4)nn3C3CC3)nc12` [Example 123a, 2-[2-(2-Cyclopropyl-5-pyrrolidin-1-yl-2H-[1,2,4]triazol-3-yl)-ethyl]-5,8-dimethyl-[1,2,4]triazolo[1,5-a]pyrazine]: the IC50 is 2.03 nM.
Turning to `Cc1c(Cl)cc(OC(F)F)c2nc(CCc3nc(N4CCCC4)n(C)n3)nn12` [Example 106, 6-Chloro-8-difluoromethoxy-5-methyl-2-[2-(1-methyl-5-pyrrolidin-1-yl-1H-[1,2,4]triazol-3-yl)-ethyl]-[1,2,4]triazolo[1,5-c]pyridine], inhibition was half-maximal at 0.55 nM (IC50). This IC50 lies about 3.7-fold lower than the previous one.
With `Cc1c(Cl)cc(C(F)(F)F)c2nc(CCc3nc(N4CCCC4)n(C)n3)nn12` [Example 105, 6-Chloro-5-methyl-2-[2-(1-methyl-5-pyrrolidin-1-yl-1H-[1,2,4]triazol-3-yl)-ethyl]-8-trifluoromethyl-[1,2,4]triazolo[1,5-c]pyridine] the figure was 0.44 nM.
Then `Cc1cccc2nc(CCc3nc(N4CCCC4)nn3C)nn12` [Example 29, 5-Methyl-2-(2-(1-methyl-3-(pyrrolidin-1-yl)-1H-1,2,4-triazol-5-yl)ethyl)-[1,2,4]triazolo[1,5-a]pyridine], with 55.9 nM; and `Cc1ccn2nc(CCc3nc(N4CCCC4)n(C)n3)nc2c1C` [Example 32, 7,8-Dimethyl-2-(2-(1-methyl-5-(pyrrolidin-1-yl)-1H-1,2,4-triazol-3-yl)ethyl)-[1,2,4]triazolo[1,5-a]pyridine], with 7.23 nM.
Take `Cc1c(Cl)cc(C(F)(F)F)c2nc(CCc3nc(N4CCCC4)nn3C3CCOCC3)nn12` [Example 122, 6-Chloro-5-methyl-2-(2-(3-(pyrrolidin-1-yl)-1-(tetrahydro-2H-pyran-4-yl)-1H-1,2,4-triazol-5-yl)ethyl)-8-(trifluoromethyl)-[1,2,4]triazolo[1,5-a]pyridine]: half-maximal inhibition (IC50) required 0.35 nM.
As to `Cc1ncc(C)n2nc(CCc3nc(N4CCCC4)n(CC4CC4)n3)nc12` [Example 117b, 2-[2-(1-Cyclopropylmethyl-5-pyrrolidin-1-yl-1H-[1,2,4]triazol-3-yl)-ethyl]-5,8-dimethyl-[1,2,4]triazolo[1,5-a]pyrazine], the midpoint of inhibition, the IC50, lay at 6.69 nM.
`Cc1ncc(C)n2nc(/C=C/c3nc(N4CCCC4)n(C)n3)nc12` [Example 17, 5,8-Dimethyl-2-[2-(1-methyl-5-pyrrolidin-1-yl-1H-[1,2,4]triazol-3-yl)-vinyl]-[1,2,4]triazolo[1,5-a]pyrazine] returned an IC50 of 6.72 nM.
Compound `Cc1ncc(C)n2nc(CCc3nc(N4CCCC4C)nn3C)nc12` (stereo not drawn) [Example 51, 5,8-Dimethyl-2-{2-[2-methyl-5-(2-methyl-pyrrolidin-1-yl)-2H-[1,2,4]triazol-3-yl]-ethyl}-[1,2,4]triazolo[1,5-a]pyrazine] returned a half-maximal inhibitory concentration (IC50) of 28.4 nM.
As for `Cc1c(Cl)cc(C(F)(F)F)c2nc(CCc3nc(N4CCCC4)nn3C3CC3)nn12` [Example 132, 6-Chloro-2-(2-(1-cyclopropyl-3-(pyrrolidin-1-yl)-1H-1,2,4-triazol-5-yl)ethyl)-5-methyl-8-(trifluoromethyl)-[1,2,4]triazolo[1,5-a]pyridine], the IC50 was 0.72 nM.
Regarding `Cn1nc(N2CCCC2)nc1CCc1nc2c(Cl)cc(C(F)(F)F)cn2n1` [Example 54, 8-Chloro-2-(2-(1-methyl-3-(pyrrolidin-1-yl)-1H-1,2,4-triazol-5-yl)ethyl)-6-(trifluoromethyl)-[1,2,4]triazolo[1,5-a]pyridine], it took 105 nM to reach half-maximal inhibition (IC50).
`Cc1ncc(C)n2nc(CCc3nc(N4CCCC4)nn3-c3ccccc3)nc12` [Example 109, 5,8-Dimethyl-2-[2-(2-phenyl-5-pyrrolidin-1-yl-2H-[1,2,4]triazol-3-yl)-ethyl]-[1,2,4]triazolo[1,5-a]pyrazine] returned an IC50 of 0.29 nM.
`Cn1nc(N2CCCC2)nc1CCc1nc2ccc(Cl)cn2n1` [Example 26, 6-Chloro-2-(2-(1-methyl-3-(pyrrolidin-1-yl)-1H-1,2,4-triazol-5-yl)ethyl)-[1,2,4]triazolo[1,5-a]pyridine]: the IC50 was 62.7 nM.
Turning to `Cc1c(Cl)cc(S(C)(=O)=O)c2nc(CCc3nc(N4CCCC4)nn3C)nn12` [Example 73, 6-Chloro-8-methanesulfonyl-5-methyl-2-[2-(2-methyl-5-pyrrolidin-1-yl-2H-[1,2,4]triazol-3-yl)-ethyl]-[1,2,4]triazolo[1,5-a]pyridine], the IC50 is 86.9 nM.
`Cc1ncc(C)n2nc(CCc3nc(N4CC[C@H](C)C4)nn3C)nc12` [Example 115, 5,8-Dimethyl-2-{2-[2-methyl-5-((S)-3-methyl-pyrrolidin-1-yl)-2H-[1,2,4]triazol-3-yl]-ethyl}-[1,2,4]triazolo[1,5-a]pyrazine] had an IC50 of 5.46 nM.
As to `Cc1cnc(C)n2nc(CCc3nc(N4CCCC4C)nn3C)nc12` (stereo not drawn) [Example 111, 5,8-Dimethyl-2-{2-[2-methyl-5-(2-methyl-pyrrolidin-1-yl)-2H-[1,2,4]triazol-3-yl]-ethyl}-[1,2,4]triazolo[1,5-c]pyrimidine], half-maximal inhibition (IC50) was put at 18.4 nM.
`Cc1cnc(C)n2nc(/C=C/c3nc(N4CCC4)nn3C)nc12` [Example 81, 2-[(E)-2-(5-Azetidin-1-yl-2-methyl-2H-[1,2,4]triazol-3-yl)-vinyl]-5,8-dimethyl-[1,2,4]triazolo[1,5-c]pyrimidine] had an IC50 of 74.4 nM. This IC50 lies about 4-fold higher than the previous one.
With `Cn1nc(N2CCCC2)nc1CCc1nc2cccc(C(F)(F)F)n2n1` [Example 64, 2-(2-(1-Methyl-3-(pyrrolidin-1-yl)-1H-1,2,4-triazol-5-yl)ethyl)-5-(trifluoromethyl)-[1,2,4]triazolo[1,5-a]pyridine] the figure was 56.6 nM.
